16 sequences from patent US6277383A, “Ryegrass pollen allergen” (University of Melbourne, priority 1995, dated 2001) can be followed below.

One data set relates to MAb 40.1. Nature of the data set: Antibody screening of lambda-gt 11 cDNA clones: binding of MAb 40.1. Further details: key: ++: strongest binding; -: no binding. Conditions: protein expressed by lambda-gt 11 clone in E. coli Y1090, plaque lift. The protocol: (§1) Poly (A+) mRNA isolated from mature rye grass pollen by the phenol method ([…] and Michaels, (1984) Plant Mol. Biol. Rep., 2:24-28) was used to construct a cDNA library in the vector lambda-gt 11. The library was then screened with antibody probes to detect sequences expressing Group I proteins. E. coli […] transfected with 3×10^4 recombinant phages were plated and incubated at 42° C. for 3 h. The plates were overlaid with a dry 132 mm nitrocellulose (NC) filter previously soaked in 10 mm IPTG and transferred to 37° C. After incubation for 3 h the filters were carefully peeled off and incubated in 20 ml per filter of MTBS (10% w/v non-fat milk powder, 50 mm Tris-HCI, pH 7.6, 150 mM Nacl) for 30 min. at room temperature. A second set of NC filters was placed on phage plates and after incubating for 3 h were treated as above. Both sets of NC filters were tested for binding of MAb 40.1 to plaques by the method described in Huynh et al. (1985) In: DNA Cloning, a practical approach, Glover, D. M. (ed.) Vol. 1, pp. 49-78, IRL Press, Oxford, England. The antibody positive plaques were picked, purified, then replated and tested for binding to probes. The positive clones were plaque-purified and tested for IgE binding using sera from grass pollen-allergic subjects. Eighteen clones were selected as encoding proteins recognized by both Lol p I-specific MAbs and IgE antibodies (Table 1). The largest of the cDNA clones, 1.2kb in size, that expressed rye-grass allergenic protein was initially selected for further characterization and sequencing, and designated clone lambda-12R (FIG. 1a).

Data set [1] has as its system IgE from sera of allergic indivs. Nature of the data set: Screening of lambda-gt 11 cDNA clones for IgE binding. Further details: species or system human; key: ++: strongest binding; -: no binding. Particulars: protein expressed by lambda-gt 11 clone, plaque lift. On the procedure: as §1
Data set [2] is described as follows: Two dimensional gel electrophoresis of ryegrass pollen proteins (pI). In kind it is physicochemical, Lolium perenne. Particulars: allergen spot on two dimensional gel. The protocol: (§2) Two dimensional (2D)-PAGE was performed in a mini-Protean II 2-D cell (Biorad, Richmond, Calif.) according to the manufacturer instructions. The proteins were diluted 1:1 in 4% CHAPS. […] The first dimension gel was run for 3.5 hours. The econd dimension gel was run for 45 minutes. Proteins on 2D-PAGE gels were silver stained to reveal the protein profile.

Data set [3] relates to human IgE of individual sera. Briefly: Peptide dot blot immunoassay: human IgE. In kind it is binding. Conditions: for IgE Binding (symbol): sera diluted 1:4. On the procedure:
The peptides were dissolved in water to give a 1.6 mM stock solution. Insoluble peptides were dissolved by sonication (Branson Sonifier 450, USA) for 1 minute.
The peptides were immobilized onto nitrocellulose (NC) filter by using a modified method published elsewhere (Sithigonglu (1991) J. Immunol. Methods, 141:23-32). Two μl of the peptide stock solutions were spotted on the NC filter (Schleicher & Schuell, W. Germany) about 1 cm apart. After the strips were dried and baked at 80° C. for one hour, they were fixed by exposure, in a tightly sealed plastic box, to vapor from 0.2% glutaraldehyde in PBS at room temperature (18° C.) for one hour. After washing thoroughly with distilled water, the NC filters were blocked with Blotto (10% non-fat dry milk in PBS) for two hours and washed in 1×Tween-PBS (0.1% Tween-20 in PBS) and 2×PBS, five minutes each.
The peptides were then screened for human IgE and mouse/rabbit IgG epitopes with individual sera (diluted 1:4 in PBS with 0.5% BSA), MAbs FMC A7 (Smart et al. (1983) Int. Arch. Allergy Clin. Immunol. 72: 243) and polyclonal rabbit anti-Lol p Ib antibody. The rabbit anti-sera was a gift from Dr. Jenny Roland, Alfred Hospital, Melbourne, Australia.
The intensity of each dot blot was measured by densitometer (Pharmacia LKB UltraScan XL, Sweden). Densitometric values greater than two were considered as positive binding in comparison to the background. For every peptide, the sera and antibody values have been added (score/peptide) and divided by the number of positive sera to express the final value as an average (score/sera). Sera C1 and C2 were not grass allergic and were used as negative controls. C refers to crude ryegrass pollen extract (1 μg/dot) as positive control.

For data set [4], the system named is IgE affinity purified from recombinant allergens and IgE from whole serum of allergic individuals. Briefly: Two-dimensional Western blot: IgE binding to allergens. Further details: species or system human. Conditions: IgE preparations that bind: AP12R, AP13R, AP19R = affinity purified from recombinant Lol p Ib.1 fragment IH, Lol p Ia clone 13R, Lol p Ib.2; TIgE = whole serum.
Text: Serum used in the experiment to identify allergen regions of Lol p Ia and Lol p Ib was collected by Dr. R. Phomley at the Epworth Hospital (Richmond, Australia) from patients with a history of allergy to ryegrass pollen and a positive skin test to ryegrass pollen extract. IgE was affinity-purified from recombinant allergens as previously described (Singh, et al., (1991) Proc. Nat'l Acad. Sci. USA, […]; Example 2) except recombinant proteins were derived from lambda-gt11 culture rather than pGEX cultures.
as §2
Conditions for electrophoresis and Western blotting and for the processing of Western blots with MAbs and IgE were as described by Singh, et al., (1985) Int. Arch. Allergy Appl. Immun., 78:300.
Background: Immunoblotting shows a protein as a band on a membrane.

Another data set concerns MAb 12.3. Briefly: Antibody screening of lambda-gt 11 cDNA clones: binding of MAb 12.3. Further details: key to Binding of MAb 12.3: ++: strongest binding; -: no binding. Conditions: protein expressed by lambda-gt 11 clone in E. coli Y1090, plaque lift. The protocol:
as §1

Where only a bound is given, the exact number is not on record here.

Regarding GFKAAVAAAANA [Peptide 6], in the data set on MAb 40.1, the “Binding of MAb 40.1” value is given as “++”. Also, the “Binding of IgE from sera of allergic indivs.” value (shortened to “Binding of IgE”) in data set [1] is recorded as “-”. In addition, the pI in data set [2] stood at 6.45. Moreover, the “IgE Binding (symbol)” value in data set [3] is on record as “+ (Densitometric values greater than two were considered as positive binding)”. In addition, in data set [4], the IgE binding entry was “AP12R,AP19R and TIgE”.
In the case of AATPAAAGGKAT [Peptide 3], in the data set with MAb 40.1, the “Binding of MAb 40.1” value is on record as “++”. Besides, in data set [1], the “Binding of IgE” value was “-”. In data set [2], the pI is reported as 6.45. Moreover, the IgE binding entry in data set [4] is recorded as “AP13R TIgE”.
For PGLIPKLNTAYD [Peptide 11], in the data set on MAb 40.1, the “Binding of MAb 40.1” value was “++”. Further, the “Binding of IgE” value in data set [1] is listed as “-”. In data set [2], this sequence showed a pI of 10.6. In addition, the IgE binding result in data set [4] is “AP12R,AP19R and TIgE”.
VPAAKIPTGELQI [Peptide 18]: the “Binding of MAb 40.1” value with MAb 40.1 is “++”. The “Binding of IgE” value in data set [1] is on record as “++”. Also, in data set [3], the “IgE Binding (symbol)” value is on record as “+ (Densitometric values greater than two were considered as positive binding)”. Besides, the “Binding of MAb 12.3” value in the data set on MAb 12.3 is given as “++”.
For AAATPATPAATPA [Peptide 2], the “Binding of MAb 40.1” value with MAb 40.1 is given as “++”. Moreover, the “Binding of IgE” value in data set [1] is on record as “-”. The same sequence yielded a pI in data set [2] of 5.9. Besides, the IgE binding result in data set [4] was “AP13R TIgE”.
For the sequence KLLEDVNAGFKA [Peptide 5], the “Binding of MAb 40.1” value with MAb 40.1 is “++”. Also, the “Binding of IgE” value in data set [1] is “-”. The sequence also gave a pI in data set [2] of 6. Besides, the “IgE Binding (symbol)” value in data set [3] is “+ (Densitometric values greater than two were considered as positive binding)”. The IgE binding entry in data set [4] was “AP12R,AP19R and TIgE”.
Consider AALTKAITAMTQA [Peptide 29], for which, in data set [3], the “IgE Binding (symbol)” value is “+ (Densitometric values greater than two were considered as positive binding)”.
GAATAAAGGYKA [Peptide 34]: in data set [3], the “Human IgE-reactivity (in words)” value is “highest human IgE-reactivity” and the “IgE Binding (symbol)” value was “+ (Densitometric values greater than two were considered as positive binding)”.
With ETYKFIPSLEAA [Peptide 25], in data set [3], the “IgE Binding (symbol)” value is “+ (Densitometric values greater than two were considered as positive binding)”.
Turning to GKATTDEQKLLE [Peptide 4], the “Binding of MAb 40.1” value with MAb 40.1 is reported as “++”. In data set [1], the “Binding of IgE” value is reported as “-”. In data set [2], this sequence gave a pI of 7. Besides, the IgE binding result in data set [4] is “AP13R TIgE”.
Regarding IAGALEVHAVKPA [Peptide 16], the “Binding of MAb 40.1” value in the data set with MAb 40.1 is listed as “++”. The “Binding of IgE” value in data set [1] is recorded as “-”. For the same sequence, the pI in data set [2] is on record as less than 5.65. In data set [3], the “Human IgE-reactivity (in words)” value is “highest human IgE-reactivity” and the “IgE Binding (symbol)” value is recorded as “+ (Densitometric values greater than two were considered as positive binding)”. Also, the IgE binding result in data set [4] is on record as “TIgE”.
Regarding YAATVAAPEVKY [Peptide 27], the “IgE Binding (symbol)” value in data set [3] is listed as “+ (Densitometric values greater than two were considered as positive binding)”.
As for AAEGATPEAKYD [Peptide 13], the “Binding of MAb 40.1” value in the data set on MAb 40.1 is given as “++”. Further, the pI in data set [2] came out at 7. For the same sequence, the “IgE Binding (symbol)” value in data set [3] is given as “+ (Densitometric values greater than two were considered as positive binding)”. Moreover, in data set [4], the IgE binding entry was “TIgE”.
Turning to AMTQAQKAGKPA [Peptide 30], in data set [3], the “Human IgE-reactivity (in words)” value is “highest human IgE-reactivity” and the “IgE Binding (symbol)” value was “+ (Densitometric values greater than two were considered as positive binding)”.
For ATAANAAPTNDK [Peptide 21], in that order: “highest human IgE-reactivity” and “+ (Densitometric values greater than two were considered as positive binding)”.
As for AVKPATEEVPAA [Peptide 17], the “Binding of MAb 40.1” value with MAb 40.1 was “++”. In addition, the “Binding of IgE” value in data set [1] was “-”. The pI in data set [2] is less than 5.65. For the same sequence, the IgE binding entry in data set [4] was “TIgE”.
